Results from patent US20260263429A1, “INHIBITORS OF CA 2+/CALMODULIN-DEPENDENT PROTEIN KINASE II (CAMKII) THAT DO NOT INHIBIT LONG-TERM POTENTIATION (LTP) INDUCTION AND THERAPEUTIC USES THEREOF” (The Regents of the University of Colorado, A Body Corporate, priority 2023, published 2026).

Key:
[1] = system: paCaMKII T286A movement to synapses and spine growth; assay: Photoactivation of paCaMKII T286A in hippocampal neurons (structural LTP); format: cell-based; conditions: AS283 10 μM; AS397
Excerpt: In this Example, two sets of pharmacogenetic tools were used in combination with the photoactivable paCaMKII to test whether structural CaMKII functions are not only the necessary but also the sufficient CaMKII functions in LTP. Specifically, in one exemplary method, hippocampal neurons were examined for sLTP (e.g., the LTP-associated growth of dendritic spines) in response to direct photoactivation of paCaMKII without any other stimulation that could trigger additional signaling pathways. […] In both cases, suppressing enzymatic CaMKII activity while allowing or enhancing GluN2B binding enabled induction of structural LTP. […]
paCaMKII stimulation in hippocampal neurons. […] Neurons were then imaged 15 minutes after stimulation and assessed for CaMKII synaptic enrichment and dendritic spine growth.
Image analysis of hippocampal neurons. […] 2D maximum intensity projection images were then generated and analyzed using a custom-build program in ImageJ. The program utilizes combinatorial thresholding to mask regions of the cell that contain high intensity PSD-95 puncta (the post-synaptic side of excitatory synapses in dendritic spines) and regions of the dendritic shaft that contain no fluorescence intensity of PSD-95. […] Spine growth was assessed by measuring the changes in mCherry cell fill fluorescence intensity within dendritic spine ROIs (F/F0).

[2] = system: LTP in CaMKIIα knockout slices; assay: LTP induction in slices of CaMKIIα knockout mice injected with AAV-mScarlet (mock) or AAV-mScarlet-CaMKII F89G; format: cell-based, mouse
Protocol: Specifically, in one exemplary method, pharmacogenetic rescue of LTP with NM-PP1 was tested in hippocampal slices expressing the CaMKII F89G mutant. For this purpose, mScarlet-labeled CaMKII F89G mutant were re-expressed in the hippocampal CA1 region of CaMKIIα knockout mice. This was done by stereotactic injection of a packaged adeno-associated virus (AAV) construct in which the expression of either mScarlet alone or the mScarlet-labeled mutant CaMKII is controlled by the CaMKIIα promoter (FIG. 5A). After 5 weeks of expression, acute slices were prepared and evaluated for proper localization of expression by imaging of mScarlet fluorescence (FIG. 5A and FIG. 11A). […] As expected, NM-PP1 had no effect on the residual LTP in these control slices (FIGS. 5B-5C and FIG. 11B). By contrast, in slices expressing the CaMKII F89G mutant, LTP was completely abolished (FIGS. 5D-5E), consistent with residual LTP being further suppressed by the dominant negative effect (on the remaining minor CaMKIIβ isoform in the CaMKIIα knockout) that is exerted by a CaMKII mutant with impaired ATP-binding and thereby is deficient in both activity and GluN2B binding. […] Thus, two independent lines of pharmacogenetic evidence topple current dogma by directly supporting the conclusion that LTP induction is linked to structural rather than enzymatic functions of CaMKII.
AAV Production. […]

## NCCNc1cccc(-c2ccnc3[nH]c4ccccc4c23)c1 [AS283]
[1]
  CaMKII movement to synapses after photoactivation of paCaMKII T286A: robust CaMKII movement
  spine growth (structural LTP) after photoactivation of paCaMKII T286A: spine growth

## CC(C)(C)n1nc(Cc2cccc3ccccc23)c2c(N)ncnc21 [NM-PP1]
[2]; NM-PP1
  residual LTP in CaMKIIα knockout slices expressing mScarlet control: no effect
[2]; NM-PP1 10 μM
  LTP induction in CaMKIIα knockout slices expressing CaMKII F89G: LTP induction was enabled
